US6562802B2, “Medical composition and uses thereof” (Noviscens AB, priority 1996, dated 2003)

Key:
UV B radiation = experiment: biological light protection factor against UV B radiation, erythema score on skin of volunteers; assay type: in vivo, human; conditions: 5.0% (w/w) in petrolatum, light exposure for 16 and 32 seconds, two volunteers
Protocol: The biological light protection factor of the sunscreen formulation was determined at two concentrations of the active agent, P-PABA. The two formulations were prepared and tested at a concentration of 5.0% and 10% (w/w). For comparison, one control sunscreen agent was also studied. The UV B protection agent, ethylhexyl-4-dimethylaminobenzoic acid (EHD-PABA) was prepared at a concentration of 5.0% (w/w) in petrolatum. The test was performed on the skin of two volunteers, under standardized conditions by application of 0.1 ml of the formulation per 100 cm^2 of skin area on their backs.
An Osram Ultravitalux lamp was used as light source. The light protection factor was determined and compared to vehicle and untreated skin after light exposure on cylindrical (1.0 cm i.d.) skin areas for 16 and 32 seconds. The results were evaluated from intensity of the erythema score (FIG. 8; A) untreated control, b) 10% P-PABA, c) 5% P-PABA, D) vehicle, and E) EHD-PABA. Light exposure as indicated on each skin area for 16 seconds (left) and 32 seconds (right)). The biological protection against UV B radiation obtained by the UV B standard EHD-PABA absorber was almost similar to the protection by the polymeric P-PABA derivative.

[1] = sunscreen index according to Kumler (UV absorbing characteristics); assay type: physicochemical

Molecule	protection against UV B radiation (erythema score) (UV B radiation)	Sunscreen index [1]
CCCCC(CC)COC(=O)c1ccc(N(C)C)cc1 (stereo not shown) [EHD-PABA, ethylhexyl-4-dimethylaminobenzoic acid]	insufficient at 32 seconds in one of the volunteers	–
Nc1ccc(C(=O)O)cc1 [p-aminobenzoic acid (reference), p-aminobenzoic acid]	–	7.4
PE-N-aminobenzoic acid [P-PABA]	complete	6.2
